The source of these data is PubChem BioAssay (NCI).

Test systems include A549 NSCLC; DU-145 prostate; HCT-15 colon; HS 578T breast; K-562 leukemia; MDA-MB-231 breast; OVCAR-4 ovarian; PC-3 prostate; SN12C renal; UO-31 renal.
Common to all, as to test: NCI tumour cell line growth inhibition, 48 h

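Grown in 96-well plates, cells were treated for 48 hours with each compound at five concentrations. Insufficient inhibition: endpoint recorded as highest concentration tested. GI50: concentration for 50% inhibition of growth. TGI is the concentration that stops growth completely.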

Take `Cc1cc2nc(-c3c(N)ncc(C#N)c3-c3ccc(Cl)cc3)[nH]c2cc1C`: the GI50 in the assay with A549 NSCLC was 4.17 µM; with DU-145 prostate, 5.68 µM; with HCT-15 colon, 30.6 µM; in the assay with HS 578T breast, 12 µM; with K-562 leukemia it was 31.5 µM; with MDA-MB-231 breast, 10.5 µM. The GI50 in the assay with OVCAR-4 ovarian was 4.4 µM; with PC-3 prostate it was 6.59 µM; in the assay on SN12C renal it was 31 µM. Also, the TGI with A549 NSCLC was 24.9 µM; in the assay with DU-145 prostate, 27.1 µM; with HCT-15 colon it was over 100 µM; in the assay with HS 578T breast it was over 100 µM; in the assay with K-562 leukemia, over 100 µM; with MDA-MB-231 breast, 44.2 µM. In addition, the TGI with OVCAR-4 ovarian was 25.4 µM; in the assay on PC-3 prostate, 39.3 µM; with SN12C renal, over 100 µM.
With `CCOC(=O)CCC(NC(=O)OCc1ccccc1)C(=O)NC(CCC(=O)OCC)C(=O)NC(CCC(=O)OCC)C(=O)NNC(=O)OC(C)(C)C` (centres undefined), the TGI in the assay with A549 NSCLC, in the assay on HCT-15 colon, with HS 578T breast, in the assay on K-562 leukemia, in the assay on MDA-MB-231 breast and in the assay with PC-3 prostate was over 100 µM throughout. For the same compound, the TGI in the assay on SN12C renal and in the assay with UO-31 renal was over 100 µM in each case.
As for `C=CCCCCn1c2ccccc2c2c(C)c3cnccc3c(C)c21`, the TGI turned out to be 32.2 µM with A549 NSCLC; 27.5 µM with HCT-15 colon; 16.1 µM in the assay on K-562 leukemia; 21.8 µM with OVCAR-4 ovarian; 29.7 µM with SN12C renal; 23.8 µM in the assay on UO-31 renal.
With `O=[N+]([O-])c1cc(F)ccc1Sc1ccccc1`, the TGI in the assay with A549 NSCLC, in the assay with DU-145 prostate, with HCT-15 colon, with HS 578T breast, with K-562 leukemia and with MDA-MB-231 breast was over 10 µM in each case. In addition, the TGI with OVCAR-4 ovarian, with PC-3 prostate and in the assay with SN12C renal was over 10 µM in each case.
As to `O=C(O)Cc1ccccc1CCc1ccccc1Cl`, the TGI in the assay on A549 NSCLC, with HCT-15 colon, in the assay with K-562 leukemia, in the assay with OVCAR-4 ovarian, with SN12C renal and in the assay on UO-31 renal was over 100 µM throughout.
In the case of `NC(=S)N/N=C1\CCCC1C(O)(C(F)(F)Cl)C(F)(F)Cl` (centres undefined), the TGI in the assay on A549 NSCLC, in the assay on DU-145 prostate, in the assay with HCT-15 colon, in the assay on HS 578T breast, in the assay with K-562 leukemia and with MDA-MB-231 breast was over 10 µM throughout. Further, the TGI with OVCAR-4 ovarian, with PC-3 prostate and in the assay on SN12C renal was over 10 µM in each case.
Turning to `COc1cc2c(c(OC)c1)C(=O)O[C@H](C)CCCC/C=C/C2`, the TGI is over 100 µM with A549 NSCLC; 27.1 µM in the assay with DU-145 prostate; over 66.9 µM in the assay on HCT-15 colon; over 100 µM in the assay with HS 578T breast; over 100 µM in the assay with K-562 leukemia; over 31.9 µM in the assay on MDA-MB-231 breast. For the same compound, the values for the TGI in the assay with OVCAR-4 ovarian, with SN12C renal and in the assay with UO-31 renal were over 31.4 µM, 13.6 µM and over 30.8 µM, respectively.
As for `NNC(=O)Cn1ccnn1`, the TGI with A549 NSCLC, with DU-145 prostate, in the assay on HCT-15 colon, in the assay on K-562 leukemia, in the assay with MDA-MB-231 breast and in the assay with PC-3 prostate was over 100 µM in each case. In the assay with SN12C renal, this compound gave a TGI of over 100 µM.
As for `C=C(C)[C@@H]1CC[C@]2(CO)CC[C@]3(C)[C@H](CC[C@@H]4[C@@](C)(CCCN)[C@H](C(=C)C)CC[C@]43C)[C@@H]12`, the GI50 is 1.73 µM in the assay on A549 NSCLC; 1.68 µM in the assay with DU-145 prostate; 1.55 µM with K-562 leukemia; 1.75 µM with MDA-MB-231 breast; 1.55 µM in the assay with PC-3 prostate; 1.39 µM in the assay on SN12C renal. Further, the GI50 with UO-31 renal is 1.31 µM. Moreover, the TGI in the assay with A549 NSCLC stood at 3.43 µM; in the assay on DU-145 prostate, 3.06 µM; with K-562 leukemia it was 4.59 µM; with MDA-MB-231 breast, 3.19 µM; in the assay with PC-3 prostate, 3.09 µM; with SN12C renal it was 2.75 µM. For the same compound, the TGI in the assay on UO-31 renal is 2.58 µM.
As to `O=P(O)(O)C=C=C1CCCCC1`, the TGI in the assay on A549 NSCLC, in the assay on DU-145 prostate, in the assay on HCT-15 colon, in the assay on HS 578T breast, in the assay on K-562 leukemia and in the assay on OVCAR-4 ovarian was over 100 µM each time. Further, the TGI in the assay with PC-3 prostate and in the assay on SN12C renal was over 100 µM in each case.
For `COc1cc(CNC(=S)CCCCCCCCCCC(C)C)ccc1O`, the TGI with A549 NSCLC was over 100 µM; in the assay on DU-145 prostate, over 100 µM; with HCT-15 colon, over 100 µM; in the assay with HS 578T breast, 83.7 µM; in the assay on K-562 leukemia it was over 100 µM; with MDA-MB-231 breast, over 100 µM. Also, the TGI in the assay with OVCAR-4 ovarian is over 100 µM; in the assay with SN12C renal it was over 100 µM; in the assay with UO-31 renal it was 95.7 µM.
Consider `O=c1c2cc(Br)ccc2ncn1COCc1ccccc1`, for which the TGI in the assay with A549 NSCLC, with DU-145 prostate, with HCT-15 colon, with K-562 leukemia, in the assay on OVCAR-4 ovarian and in the assay with UO-31 renal was over 100 µM in each case.
For `N#C/C(C(=O)Nc1ccccc1)=C(/N)N1CCCCC1`, the TGI in the assay with A549 NSCLC, with DU-145 prostate, with HCT-15 colon, with K-562 leukemia, with PC-3 prostate and in the assay with SN12C renal was over 100 µM throughout. The compound further displayed a TGI with UO-31 renal of over 100 µM.
As to `C[C@]12CCC(=O)C=C1CC[C@@H]1[C@@H]2[C@@H](O)C[C@@]2(C)[C@H]1CC[C@]2(O)C(=O)COC(=O)CCC1CCCC1`, the TGI with A549 NSCLC, with HCT-15 colon, in the assay on SN12C renal and in the assay with UO-31 renal was over 100 µM throughout.
As to `COC(=O)C1CC23C=CCN4CC(C2C)C2(c5ccccc5NC12)C43` (centres undefined), the TGI in the assay with A549 NSCLC, with DU-145 prostate, in the assay on HCT-15 colon, in the assay on HS 578T breast, with K-562 leukemia and with MDA-MB-231 breast was over 100 µM throughout. The TGI in the assay on OVCAR-4 ovarian, in the assay with PC-3 prostate and in the assay on SN12C renal was over 100 µM in each case.
